Test results published in ChEMBL document CHEMBL4002629, “Design, synthesis and biological evaluation of novel 3-substituted 4-anilino-coumarin derivatives as antitumor agents” (Bioorg Med Chem Lett, 2017).
pIC50: −log10 of the molar value. Activity calls are given as the source filed them. The calls are words filed in the database; no cut-off is given here.

Tests used:
[1] = tested on: MCF7; experiment: Induction of apoptosis in human MCF7 cells assessed as membrane shrinkage at 5 to 15 uM after 24 hrs by Hoechst 33258 staining-based inverted microscopy; type: functional, cell-based
[2] = tested on: MCF7; experiment: Induction of apoptosis in human MCF7 cells assessed as necrotic cells at 5 uM after 48 hrs by annexin V-propidium iodide staining-based flow cytometry (reference value: 0.3%); type: functional
[3] = tested on: MCF7; experiment: Cell cycle arrest in human MCF7 cells assessed as accumulation at G2/M phase at 15 uM after 48 hrs by propidium iodide staining-based flow cytometric method (reference value: 24.16 +/- 2.29%); type: functional
[4] = tested on: MCF7; experiment: Antiproliferative activity against human MCF7 cells after 48 hrs by MTT assay; type: functional, cell-based; settings: MCF7, 48 h
[5] = tested on: MCF7; experiment: Induction of apoptosis in human MCF7 cells assessed as viable cells at 15 uM after 48 hrs by annexin V-propidium iodide staining-based flow cytometry (reference value: 96.3%); type: functional; settings: MCF7, 48 h, read-out: Activity
[6] = tested on: MCF7; experiment: Induction of apoptosis in human MCF7 cells assessed as late apoptotic cells at 15 uM after 48 hrs by annexin V-propidium iodide staining-based flow cytometry (reference value: 0.1%); type: functional
[7] = tested on: MCF7; experiment: Induction of apoptosis in human MCF7 cells assessed as viable cells at 10 uM after 48 hrs by annexin V-propidium iodide staining-based flow cytometry (reference value: 96.3%); type: functional; settings: MCF7, 48 h, read-out: Activity
[8] = tested on: HCT-116; experiment: Antiproliferative activity against human HCT116 cells after 48 hrs by MTT assay; type: functional, cell-based; settings: HCT-116, 48 h
[9] = tested on: MCF7; experiment: Induction of apoptosis in human MCF7 cells assessed as early apoptotic cells at 10 uM after 48 hrs by annexin V-propidium iodide staining-based flow cytometry (reference value: 3.2%); type: functional
[10] = tested on: MCF7; experiment: Induction of apoptosis in human MCF7 cells assessed as membrane blebbing at 5 to 15 uM after 24 hrs by Hoechst 33258 staining-based inverted microscopy; type: functional, cell-based
[11] = tested on: MCF7; experiment: Induction of apoptosis in human MCF7 cells assessed as viable cells at 5 uM after 48 hrs by annexin V-propidium iodide staining-based flow cytometry (reference value: 96.3%); type: functional; settings: MCF7, 48 h, read-out: Activity
[12] = tested on: HUVEC; experiment: Antiproliferative activity against HUVEC after 48 hrs by MTT assay; type: cell-based; settings: Homo sapiens
[13] = Selectivity index, ratio of IC50 for HUVEC to IC50 for human PANC1 cells
[14] = Selectivity index, ratio of IC50 for HUVEC to IC50 for human HCT116 cells
[15] = tested on: MCF7; experiment: Cell cycle arrest in human MCF7 cells assessed as accumulation at G0/G1 phase at 15 uM after 48 hrs by propidium iodide staining-based flow cytometric method (reference value: 55.56 +/- 0.91%); type: functional
[16] = tested on: MCF7; experiment: Cell cycle arrest in human MCF7 cells assessed as accumulation at G0/G1 phase at 10 uM after 48 hrs by propidium iodide staining-based flow cytometric method (reference value: 55.56 +/- 0.91%); type: functional
[17] = tested on: MCF7; experiment: Cell cycle arrest in human MCF7 cells assessed as accumulation at G2/M phase at 10 uM after 48 hrs by propidium iodide staining-based flow cytometric method (reference value: 24.16 +/- 2.29%); type: functional
[18] = tested on: MCF7; experiment: Induction of apoptosis in human MCF7 cells assessed as cell distortion at 5 to 15 uM after 24 hrs by Hoechst 33258 staining-based inverted microscopy; type: functional
[19] = tested on: MCF7; experiment: Induction of apoptosis in human MCF7 cells assessed as early apoptotic cells at 15 uM after 48 hrs by annexin V-propidium iodide staining-based flow cytometry (reference value: 3.2%); type: functional
[20] = tested on: MCF7; experiment: Induction of apoptosis in human MCF7 cells after 48 hrs by annexin V-propidium iodide staining-based flow cytometry; type: functional, cell-based
[21] = tested on: MCF7; experiment: Induction of apoptosis in human MCF7 cells assessed as necrotic cells at 15 uM after 48 hrs by annexin V-propidium iodide staining-based flow cytometry (reference value: 0.3%); type: functional
[22] = tested on: MCF7; experiment: Induction of apoptosis in human MCF7 cells assessed as late apoptotic cells at 5 uM after 48 hrs by annexin V-propidium iodide staining-based flow cytometry (reference value: 0.1%); type: functional
[23] = Selectivity index, ratio of IC50 for HUVEC to IC50 for human HepG2 cells
[24] = tested on: MCF7; experiment: Induction of apoptosis in human MCF7 cells assessed as late apoptotic cells at 10 uM after 48 hrs by annexin V-propidium iodide staining-based flow cytometry (reference value: 0.1%); type: functional
[25] = tested on: MCF7; experiment: Cell cycle arrest in human MCF7 cells assessed as accumulation at G0/G1 phase at 5 uM after 48 hrs by propidium iodide staining-based flow cytometric method (reference value: 55.56 +/- 0.91%); type: functional
[26] = tested on: PANC-1; experiment: Antiproliferative activity against human PANC1 cells after 48 hrs by MTT assay; type: functional, cell-based; settings: PANC-1, 48 h
[27] = tested on: MCF7; experiment: Induction of apoptosis in human MCF7 cells assessed as necrotic cells at 10 uM after 48 hrs by annexin V-propidium iodide staining-based flow cytometry (reference value: 0.3%); type: functional
[28] = tested on: MCF7; experiment: Cell cycle arrest in human MCF7 cells assessed as accumulation at G2/M phase at 5 uM after 48 hrs by propidium iodide staining-based flow cytometric method (reference value: 24.16 +/- 2.29%); type: functional
[29] = tested on: MCF7; experiment: Induction of apoptosis in human MCF7 cells assessed as early apoptotic cells at 5 uM after 48 hrs by annexin V-propidium iodide staining-based flow cytometry (reference value: 3.2%); type: functional
[30] = tested on: MCF7; experiment: Induction of apoptosis in human MCF7 cells assessed as cell rounding up at 5 to 15 uM after 24 hrs by Hoechst 33258 staining-based inverted microscopy; type: functional
[31] = Selectivity index, ratio of IC50 for HUVEC to IC50 for human MCF7 cells
[32] = tested on: HepG2; experiment: Antiproliferative activity against human HepG2 cells after 48 hrs by MTT assay; type: functional, cell-based; settings: HepG2, 48 h

With `COc1ccc2oc(=O)c(C(=O)C(F)(F)F)c(Nc3ccc4c(c3)OCO4)c2c1` as the compound, how does the Activity [1] read?
The Activity was “Active”.

And the Activity [2]?
Its Activity is 1.1%.

And the Activity [3]?
Its Activity is 63.06%.

What about the pIC50 [4] of the same compound?
Its pIC50 is 4.78.

And the viability at 15 µM [5]?
The viability at 15 µM was 59.9%.

And the Activity [6]?
The Activity was 4.7%.

What about the viability at 10 µM [7] of the same compound?
Its viability at 10 µM is 76.3%.

What about the pIC50 [8] of the same compound?
The pIC50 was 5.35.

And the Activity [9]?
The Activity was 20.2%.

And the Activity [10]?
Its Activity is “Active”.

And the viability at 5 µM [11]?
Its viability at 5 µM is 81.3%.

And the pIC50 [12]?
Its pIC50 is 4.58.

And the “Ratio IC50” value [13]?
The value was 5.09.

What about the “Ratio IC50” value [14] of the same compound?
The value was 5.94.

What about the Activity [15] of the same compound?
The Activity was 21.93%.

What about the Activity [16] of the same compound?
The Activity was 30.15%.

What about the Activity [17] of the same compound?
The Activity was 41.93%.

What about the Activity [18] of the same compound?
Its Activity is “Active”.

And the Activity [19]?
The Activity was 32.1%.

And the Activity [20]?
The Activity was “Dose-dependent effect”.

And the Activity [21]?
The Activity was 3.3%.

What about the Activity [22] of the same compound?
The Activity was 1.3%.

What about the “Ratio IC50” value [23] of the same compound?
Its value is 4.82.

And the Activity [24]?
The Activity was 1.9%.

And the Activity [25]?
The Activity was 45.12%.

What about the pIC50 [26] of the same compound?
Its pIC50 is 5.29.

And the Activity [27]?
Its Activity is 1.6%.

What about the Activity [28] of the same compound?
The Activity was 26.13%.

And the Activity [29]?
Its Activity is 16.3%.

What about the Activity [30] of the same compound?
Its Activity is “Active”.

What about the “Ratio IC50” value [31] of the same compound?
The value was 1.59.

What about the pIC50 [32] of the same compound?
Its pIC50 is 5.26.

With `O=c1[nH]cc(F)c(=O)[nH]1` [FLUOROURACIL] as the compound, how does the pIC50 [8] read?
The pIC50 was 4.42.

What about the pIC50 [26] of the same compound?
Its pIC50 is 4.32.

Which results are given for `COc1ccc(-c2c(Nc3ccc(F)cc3)c3ccc(OC)cc3oc2=O)cc1`?
pIC50 [4]: < 4.00; pIC50 [32]: < 4.00

With `COc1ccc(Nc2c(-c3ccc(OC)cc3)c(=O)oc3ccccc23)cc1` as the compound, how does the pIC50 [4] read?
The pIC50 was 4.46.

And the pIC50 [8]?
Its pIC50 is 4.44.

What about the pIC50 [26] of the same compound?
Its pIC50 is 4.43.

And the pIC50 [32]?
Its pIC50 is 4.45.

With `COc1ccc(-c2c(Nc3cccc(C(F)(F)F)c3)c3ccccc3oc2=O)cc1` as the compound, how does the pIC50 [4] read?
Its pIC50 is 4.67.

And the pIC50 [8]?
Its pIC50 is 4.25.

What about the pIC50 [26] of the same compound?
Its pIC50 is 4.31.

And the pIC50 [32]?
The pIC50 was 4.18.

With `COc1ccc(Nc2c(C(=O)C(F)(F)F)c(=O)oc3ccc(OC)cc23)cc1` as the compound, how does the pIC50 [4] read?
The pIC50 was under 4.00.

What about the pIC50 [32] of the same compound?
The pIC50 was under 4.00.

What does the source list for `COc1ccc(-c2c(Nc3ccc4c(c3)OCO4)c3ccc(OC)cc3oc2=O)cc1`?
pIC50 [4]: < 4.00; pIC50 [32]: < 4.00

With `COc1ccc(-c2c(Nc3ccc(F)cc3)c3ccc(O)cc3oc2=O)cc1` as the compound, how does the pIC50 [4] read?
Its pIC50 is 4.15.

What about the pIC50 [8] of the same compound?
The pIC50 was 4.18.

What about the pIC50 [26] of the same compound?
The pIC50 was 4.12.

What about the pIC50 [32] of the same compound?
Its pIC50 is 4.18.

With `COc1ccc(-c2c(Nc3ccc4c(c3)OCO4)c3ccc(O)cc3oc2=O)cc1` as the compound, how does the pIC50 [4] read?
The pIC50 was 4.05.

What about the pIC50 [8] of the same compound?
The pIC50 was 4.38.

What about the pIC50 [26] of the same compound?
Its pIC50 is 4.32.

What about the pIC50 [32] of the same compound?
The pIC50 was 4.10.

With `COc1ccc(-c2c(Nc3ccc4c(c3)OCO4)c3ccccc3oc2=O)cc1` as the compound, how does the pIC50 [4] read?
The pIC50 was under 4.00.

What about the pIC50 [32] of the same compound?
Its pIC50 is under 4.00.

With `CCOc1ccc(Nc2c(-c3ccc(OC)cc3)c(=O)oc3cc(O)ccc23)cc1` as the compound, how does the pIC50 [4] read?
Its pIC50 is 4.49.

What about the pIC50 [8] of the same compound?
Its pIC50 is 4.34.

What about the pIC50 [26] of the same compound?
Its pIC50 is 4.36.

And the pIC50 [32]?
The pIC50 was 4.44.

What does the source list for `COc1ccc(-c2c(Nc3cccc(C(F)(F)F)c3)c3ccc(OC)cc3oc2=O)cc1`?
pIC50 [4]: 4.44; pIC50 [8]: 4.39; pIC50 [26]: 4.40; pIC50 [32]: 4.24

With `COc1ccc(-c2c(Nc3cc(OC)c(OC)c(OC)c3)c3ccc(OC)cc3oc2=O)cc1` as the compound, how does the pIC50 [4] read?
The pIC50 was 4.05.

What about the pIC50 [32] of the same compound?
The pIC50 was 4.07.

With `COc1ccc(-c2c(Nc3cccc(C(F)(F)F)c3)c3ccc(O)cc3oc2=O)cc1` as the compound, how does the pIC50 [4] read?
Its pIC50 is 4.31.

What about the pIC50 [8] of the same compound?
Its pIC50 is 4.25.

What about the pIC50 [26] of the same compound?
The pIC50 was 4.17.

What about the pIC50 [32] of the same compound?
Its pIC50 is 4.27.

Which results are given for `COc1ccc(-c2c(Nc3ccc(F)cc3)c3ccccc3oc2=O)cc1`?
pIC50 [4]: 4.42; pIC50 [8]: 4.40; pIC50 [26]: 4.49; pIC50 [32]: 4.45

With `COc1ccc(-c2c(Nc3ccc(C)c(O)c3)c3ccccc3oc2=O)cc1` as the compound, how does the pIC50 [4] read?
Its pIC50 is 4.92.

What about the pIC50 [8] of the same compound?
Its pIC50 is 4.91.

What about the pIC50 [26] of the same compound?
Its pIC50 is 5.01.

And the pIC50 [32]?
Its pIC50 is 4.99.

With `COc1ccc(-c2c(Nc3ccc(NC(C)=O)cc3)c3ccc(OC)cc3oc2=O)cc1` as the compound, how does the pIC50 [4] read?
The pIC50 was 4.07.

What about the pIC50 [32] of the same compound?
Its pIC50 is under 4.00.

With `COc1ccc2c(Nc3ccc(F)cc3)c(C(=O)C(F)(F)F)c(=O)oc2c1` as the compound, how does the pIC50 [4] read?
The pIC50 was 5.01.

And the pIC50 [8]?
The pIC50 was 4.93.

And the pIC50 [26]?
Its pIC50 is 4.91.

What about the pIC50 [32] of the same compound?
The pIC50 was 5.08.
